Consider one compound from EPA's ToxValDB 9.5 (doi:10.2903/j.efsa.2010.1783).

≈ marks a conversion by molar mass, not a printed value.

One data set has as its system Anas platyrhynchos. As to conditions: acute; oral; unspecified; mortality.
A further data set has as its system Colinus virginianus. The following applies: acute, oral, mortality.
Another data set relates to Coturnix japonica. The following applies: reproduction developmental; duration: 20 weeks.
Another data set relates to Daphnia magna. The following applies: acute; duration: 48 hours; mortality.
The next data set has as its system Oncorhynchus mykiss. As to conditions: acute; duration: 96 hours; mortality.
A further data set deals with Oryctolagus sp. As to conditions: subchronic; duration: 90 days; oral; hematological.
For the next data set, the system named is Rattus norvegicus. The following applies: acute; oral; mortality.
The next data set has as its system Tagia sp. As to conditions: acute; duration: 14 days; mortality.

A word on the NOAEL: it is the highest tested level that showed no adverse finding. `O=c1oc2ccccc2c(O)c1C(CC(O)c1ccc(-c2ccc(Br)cc2)cc1)c1ccccc1` (centres undefined) [Bromadiolone]: the LD50 in the data set on Anas platyrhynchos is 1290 mg/kg; with Colinus virginianus (duration: 5 days, diet) it was 8.3 mg/kg-day; in the data set on Colinus virginianus it was 138 mg/kg; with Rattus norvegicus it was below 0.84 mg/kg. The compound further returned an NOEL with Coturnix japonica of 0.011 mg/kg-day. Moreover, the figures for the LC50 with Daphnia magna, in the data set with Oncorhynchus mykiss and in the data set on Tagia sp. were 2 µg/mL (≈ 3.79 µM), above 8 µg/mL and above 4.74 mg/kg, respectively. The NOAEL in the data set with Oryctolagus sp. amounted to 0.5 mg/kg-day.
